According to patent US10065990B2, “Cyclic peptide compound, and preparation method, pharmaceutical composition and use thereof” (HANGZHOU GUANYU BIO-MEDICAL CO., LTD, priority 2013, dated 2018):
Where two headings read alike, the source gives them in different places.

What was measured:
HDAC7 = target: T1, HDAC7 (Homo sapiens, UniProt Q8WUI4); assay: HDAC biochemical activity measurement (fluorescent substrate deacetylation);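 as to all read-outs here: fluorogenic deacetylation assay using acetyl-lysine substrate at 20 µM, enzyme and compound incubated 30 min at 37 °C, then developer added, fluorescence read at 360/460 nm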; conditions: for IC50 HDAC7: 37° C. 30 minutes
T1 sequence (Q8WUI4 1-952): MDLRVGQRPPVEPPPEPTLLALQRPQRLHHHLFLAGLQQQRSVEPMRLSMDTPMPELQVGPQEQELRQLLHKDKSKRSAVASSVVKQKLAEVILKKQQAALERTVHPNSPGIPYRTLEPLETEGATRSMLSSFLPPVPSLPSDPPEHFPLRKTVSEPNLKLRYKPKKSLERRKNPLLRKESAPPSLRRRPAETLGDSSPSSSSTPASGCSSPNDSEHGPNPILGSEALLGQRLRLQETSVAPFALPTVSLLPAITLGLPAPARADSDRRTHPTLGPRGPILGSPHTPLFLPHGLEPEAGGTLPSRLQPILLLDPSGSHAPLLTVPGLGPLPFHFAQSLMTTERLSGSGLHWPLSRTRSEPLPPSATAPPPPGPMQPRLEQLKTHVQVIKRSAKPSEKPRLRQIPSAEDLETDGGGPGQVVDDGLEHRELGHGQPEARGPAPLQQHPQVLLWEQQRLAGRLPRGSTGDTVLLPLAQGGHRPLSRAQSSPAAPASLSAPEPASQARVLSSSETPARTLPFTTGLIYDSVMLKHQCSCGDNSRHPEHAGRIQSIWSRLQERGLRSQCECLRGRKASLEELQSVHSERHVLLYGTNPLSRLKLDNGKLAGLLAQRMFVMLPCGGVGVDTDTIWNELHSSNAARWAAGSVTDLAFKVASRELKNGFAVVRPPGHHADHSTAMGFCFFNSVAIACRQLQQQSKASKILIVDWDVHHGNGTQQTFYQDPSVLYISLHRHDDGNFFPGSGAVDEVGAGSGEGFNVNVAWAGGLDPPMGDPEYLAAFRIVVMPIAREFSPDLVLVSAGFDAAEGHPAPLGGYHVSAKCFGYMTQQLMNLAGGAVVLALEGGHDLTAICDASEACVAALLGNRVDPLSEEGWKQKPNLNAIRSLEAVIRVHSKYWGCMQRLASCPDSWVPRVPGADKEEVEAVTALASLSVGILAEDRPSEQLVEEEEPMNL

[1] = test system: A549 (human lung cancer cells); assay: MTT cancer cell growth inhibition; assay type: cell-based; conditions: Homo sapiens, A549, 72 h, MTT, 72 hours incubation, read-out: GI50 A54
In short: (§1)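 Cells seeded at 1500/well in DMEM or RPMI 1640 with 10% FBS, incubated overnight, then exposed to compound at 10^−5 to 10^−10 M final in triplicate for 72 h at 37° C, 5% CO2. MTT added for 4 h, formazan dissolved in DMSO, absorbance read at 570 nm; GI50 derived from viability.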

[2] = test system: BGC-823 (human gastric cancer cells); assay: MTT cancer cell growth inhibition; assay type: cell-based; conditions: Homo sapiens, BGC-823, 72 h, MTT, 72 hours incubation, read-out: GI50 BG
In short: as §1

[3] = test system: Bel-7402 (human hepatoma cells); assay: MTT cancer cell growth inhibition; assay type: cell-based; conditions: Homo sapiens, Bel-7402, 72 h, MTT, 72 hours incubation, Bel-7402 cells; read-out: GI50 Bel-7402
In short: as §1

[4] = test system: DU145 (human prostate cancer cells); assay: MTT cancer cell growth inhibition; assay type: cell-based; conditions: Homo sapiens, DU-145, 72 h, MTT, 72 hours incubation, read-out: GI50 Du1
In short: as §1

[5] = test system: H1975 (non-small cell lung adenocarcinoma); assay: MTT cancer cell growth inhibition; assay type: cell-based; conditions: Homo sapiens, NCI-H1975, 72 h, MTT, 72 hours incubation, H1975 cells; read-out: GI50 H1975
In short: as §1

[6] = test system: HCC827 (human non-small cell lung cancer cells); assay: MTT cancer cell growth inhibition; assay type: cell-based; conditions: Homo sapiens, HCC827, 72 h, MTT, 72 hours incubation, HCC827 cells; read-out: GI50 HCC827
In short: as §1

[7] = test system: HT1080 (human fibrosarcoma cells); assay: MTT cancer cell growth inhibition; assay type: cell-based; conditions: Homo sapiens, HT-1080, 72 h, MTT, 72 hours incubation, read-out: GI50 HT1
In short: as §1

[8] = test system: Hela (human cervical cancer cells); assay: MTT cancer cell growth inhibition; assay type: cell-based; conditions: Homo sapiens, HeLa, 72 h, MTT, 72 hours incubation, read-out: GI50 Hela
In short: as §1

[9] = test system: Huh-7 (human hepatoma cells); assay: MTT cancer cell growth inhibition; assay type: cell-based; conditions: Homo sapiens, Huh-7, 72 h, MTT, 72 hours incubation, Huh-7 cells; read-out: GI50 Huh-7
In short: as §1

[10] = test system: K562 (human leukemia cells); assay: MTT cancer cell growth inhibition; assay type: cell-based; conditions: Homo sapiens, K562, 72 h, MTT, 72 hours incubation, K562 cells; read-out: GI50 K562
In short: as §1

[11] = test system: KBM-5 (human chronic myelogenous leukemia); assay: MTT cancer cell growth inhibition; assay type: cell-based; conditions: Homo sapiens, KBM5, 72 h, MTT, 72 hours incubation, KBM-5 cells; read-out: GI50 KBM-5
In short: as §1

[12] = test system: KBM5-T315I (human chronic myelogenous leukemia); assay: MTT cancer cell growth inhibition; assay type: cell-based; conditions: Homo sapiens, 72 h, MTT, 72 hours incubation, KBM5-T315I cells; read-out: GI50 KBM5-T315I
In short: as §1

[13] = test system: MCF-7 (human breast cancer cells); assay: MTT cancer cell growth inhibition; assay type: cell-based; conditions: Homo sapiens, MCF7, 72 h, 72 hours incubation, read-out: GI50 MCF
In short: as §1

[14] = test system: MDA-MB-231 (breast cancer cells); assay: MTT cancer cell growth inhibition; assay type: cell-based; conditions: Homo sapiens, MDA-MB-231, 72 h, read-out: GI50 MDA-MB-231, MTT, 72 hours incubation, MDA-MB-231 cells
In short: as §1

[15] = test system: MOLT-4 (human acute lymphoblastic leukemia cells); assay: MTT cancer cell growth inhibition; assay type: cell-based; conditions: Homo sapiens, MOLT-4, 72 h, MTT, 72 hours incubation, read-out: GI50 Mol
In short: as §1

[16] = test system: N-87 (human gastric cancer cells); assay: MTT cancer cell growth inhibition; assay type: cell-based; conditions: Homo sapiens, 72 h, MTT, 72 hours incubation, N-87 cells; read-out: GI50 N-87
In short: as §1

[17] = test system: PANC-1 (Pac-1, human pancreatic cancer cells); assay: MTT cancer cell growth inhibition; assay type: cell-based; conditions: Homo sapiens, PANC-1, 72 h, MTT, 72 hours incubation, read-out: GI50 PAN
In short: as §1

[18] = test system: SGC-7901 (human gastric cancer cells); assay: MTT cancer cell growth inhibition; assay type: cell-based; conditions: Homo sapiens, SGC-7901, 72 h, MTT, 72 hours incubation, SGC-7901 cells; read-out: GI50 SGC-7901
In short: as §1

[19] = test system: U937 (human leukemia cells); assay: MTT cancer cell growth inhibition; assay type: cell-based; conditions: Homo sapiens, U-937, 72 h, MTT, 72 hours incubation, read-out: GI50 U93
In short: as §1

[20] = test system: lncap (prostate cancer cells); assay: MTT cancer cell growth inhibition; assay type: cell-based; conditions: Homo sapiens, LNCaP, 72 h, MTT, 72 hours incubation, read-out: GI50 lnca
In short: as §1

Row | IC50 HDAC7 (HDAC7) | GI50 [1] [µM] | GI50 [2] [µM] | GI50 [3] [µM] | GI50 [4] [µM] | GI50 [5] [µM] | GI50 [6] [µM] | GI50 [7] [µM] | GI50 [8] [µM] | GI50 [9] [µM] | GI50 [10] [µM] | GI50 [11] [µM] | GI50 [12] [µM] | GI50 [13] [µM] | GI50 [14] [µM] | GI50 [15] [µM] | GI50 [16] [µM] | GI50 [17] [µM] | GI50 [18] [µM] | GI50 [19] [µM] | Compound | other results
1 | no activity | 0.03 | 0.06 | 0.027 | 0.04 | 0.035 | 0.053 | 0.08 | 0.07 | 0.041 | 0.029 | 0.041 | 0.057 | 0.06 | 0.031 | 0.02 | 0.061 | 0.08 | 0.039 | 0.03 | C/C=C1\NC(=O)c2ccc(F)c(n2)CNC(=O)C[C@@H](/C=C/CCS)OC(=O)[C@H](CCCCN)NC1=O [Compound 118] | GI50 [20]: 0.02 µM
2 | no activity | 0.05 | 0.03 | 0.066 | 0.05 | 0.035 | 0.055 | 0.01 | 0.03 | 0.071 | 0.023 | 0.045 | 0.033 | 0.1 | 0.016 | 0.02 | 0.053 | 0.1 | 0.084 | 0.01 | C/C=C1\NC(=O)c2nc(ccc2F)CNC(=O)C[C@@H](/C=C/CCS)OC(=O)[C@H](CCCCNC(=O)OCC2c3ccccc3-c3ccccc32)NC1=O [Compound 120] | GI50 [20]: 0.03 µM
3 | no activity | 0.04 | 0.06 | 0.036 | 0.07 | 0.023 | 0.041 | 0.08 | 0.08 | 0.099 | 0.041 | 0.053 | 0.028 | 0.07 | 0.036 | 0.08 | 0.045 | 0.06 | 0.023 | 0.04 | C/C=C1\NC(=O)c2nc(ccc2F)CNC(=O)C[C@@H](/C=C/CCS)OC(=O)[C@H](Cc2ccccc2)NC1=O [Compound 115] | GI50 [20]: 0.08 µM
4 | no activity | – | – | 0.031 | – | 0.031 | 0.038 | – | – | 0.031 | 0.021 | 0.034 | 0.038 | – | 0.032 | – | 0.028 | – | 0.031 | – | C/C=C1\NC(=O)c2ccc(SCCC)c(n2)CNC(=O)C[C@@H](/C=C/CCSC(=O)CCCCCCC)OC(=O)[C@H](CC)NC1=O [Compound 176] | GI50 ([1]; A549 cells): 0.08 µM; GI50 ([2]; BGC-823 cells): 0.02 µM; GI50 ([4]; DU145 cells): 0.05 µM; GI50 ([7]; HT1080 cells): 0.03 µM; GI50 ([8]; Hela cells): 0.05 µM; GI50 ([13]; MCF-7 cells): 0.01 µM; GI50 ([15]; MOLT-4 cells): 0.05 µM; GI50 ([17]; PANC-1 cells): 0.06 µM; GI50 ([19]; U937 cells): 0.01 µM; GI50 ([20]; lncap cells): 0.03 µM
5 | no activity | 0.05 | 0.04 | 0.043 | 0.06 | 0.016 | 0.059 | 0.08 | 0.08 | 0.023 | 0.045 | 0.063 | 0.045 | 0.06 | 0.046 | 0.08 | 0.095 | 0.04 | 0.031 | 0.05 | C=C1NC(=O)c2cccc(n2)CNC(=O)C[C@@H](/C=C/CCS)OC(=O)[C@H](C(C)C)NC1=O [Compound 131] | GI50 [20]: 0.08 µM
6 | no activity | – | – | 0.058 | – | 0.079 | 0.063 | – | – | 0.046 | 0.055 | 0.026 | 0.039 | – | 0.021 | – | 0.033 | – | 0.087 | – | C/C=C1\NC(=O)c2nc(ccc2SC)CNC(=O)C[C@@H](/C=C/CCSC(=O)CCCCCC)OC(=O)[C@H](C(C)C)NC1=O [Compound 150] | GI50 ([1]; A549 cells): 0.03 µM; GI50 ([2]; BGC-823 cells): 0.03 µM; GI50 ([4]; DU145 cells): 0.04 µM; GI50 ([7]; HT1080 cells): 0.08 µM; GI50 ([8]; Hela cells): 0.06 µM; GI50 ([13]; MCF-7 cells): 0.04 µM; GI50 ([15]; MOLT-4 cells): 0.08 µM; GI50 ([17]; PANC-1 cells): 0.03 µM; GI50 ([19]; U937 cells): 0.03 µM; GI50 ([20]; lncap cells): 0.06 µM
7 | – | – | – | 0.087 | – | 0.057 | 0.037 | – | – | 0.072 | 0.011 | 0.016 | 0.078 | – | 0.069 | – | 0.035 | – | 0.018 | – | C/C=C1\NC(=O)c2nc(ccc2SCC)CNC(=O)C[C@@H](/C=C/CCSC(=O)CCCCC)OC(=O)[C@H](C(C)C)NC1=O [Compound 253] | IC50 (μM) HDAC7 (HDAC7): no activity; GI50 ([1]; A549 cells): 0.03 µM; GI50 ([2]; BGC-823 cells): 0.05 µM; GI50 ([4]; DU145 cells): 0.02 µM; GI50 ([7]; HT1080 cells): 0.05 µM; GI50 ([8]; Hela cells): 0.05 µM; GI50 ([13]; MCF-7 cells): 0.06 µM; GI50 ([15]; MOLT-4 cells): 0.08 µM; GI50 ([17]; PANC-1 cells): 0.06 µM; GI50 ([19]; U937 cells): 0.03 µM; GI50 ([20]; lncap cells): 0.02 µM
